The source of these data is US9193710B2, “Benzodiazepinones as modulators of metabotropic glutamate receptor functions and neurological uses thereof” (SANFORD-BURNHAM MEDICAL RESEARCH INSTITUTE, priority 2011, dated 2015).

Entries after “also recorded” stand apart in the source; their conditions may differ. Read-outs that look alike come from different tables or passages of the source.

Assay type in all cases: cell-based
Assay [1] concerns human neural stem cells (hNSCs). Nature of the assay: Neuronal differentiation of human neural stem cells. Further details: key to Inhibition by LY-354740 / Inhibition by DCG-IV: I—Inhibition. Conditions: for EC50: Homo sapiens, Neural stem cell; for Inhibition by DCG-IV: inhibition of the compound-induced neurogenesis by the mGluR2/3 agonist DCG-IV; for Inhibition by LY-354740: inhibition of the compound-induced neurogenesis by the group II mGlu agonist LY-354740. On the procedure:
FIG. 1 is a dose-response curve showing the effect of Compound 1 (8-bromo-4-(pyridazin-4-yl)-1H-benzo[b][1,4]diazepin-2(3H)-one) and DCG-IV, an mGluR2/3 agonist, alone and in combination on neuronal differentiation of cultured human neural stem cells (hNSCs). When run independently, each compound was tested in a concentration response curve ranging from 0.01 μM to 31.6 μM. Data are presented as the percentage of the neuronal positive control, with basal media values subtracted. […] In combination, the compounds were combined at equal concentrations at each point (for example, the first point in the combined curve consisted of a test of 0.01 μM Compound 1 and 0.01 μM DCG-IV).
Human neural stem cells (hNSCs) were isolated and grown in monolayer culture, plated, treated with varying concentrations of 8-bromo-4-(pyridazin-4-yl)-1H-benzo[b][1,4]diazepin-2(3H)-one (Compound 1), and stained with TUJ-1 antibody, as described in U.S. Patent Application Publication No. US2007/0015138. Mitogen-free test media with a positive control for neuronal differentiation was used along with basal media without growth factors as a negative control. […] The data are presented as a percent of neuronal positive control.
The same protocol used for exemplary Compound 1 (FIG. 1 and Example 55) was used to test these compounds. LY-354740 (eglumegad) is an agonist of the group II mGlu receptors.

The target in a further assay is T1, mGluR3 (Homo sapiens, UniProt Q14832).
T1 construct: expressed in transfected cells; transient Galpha16 co-transfection
T1 sequence (Q14832 23-879): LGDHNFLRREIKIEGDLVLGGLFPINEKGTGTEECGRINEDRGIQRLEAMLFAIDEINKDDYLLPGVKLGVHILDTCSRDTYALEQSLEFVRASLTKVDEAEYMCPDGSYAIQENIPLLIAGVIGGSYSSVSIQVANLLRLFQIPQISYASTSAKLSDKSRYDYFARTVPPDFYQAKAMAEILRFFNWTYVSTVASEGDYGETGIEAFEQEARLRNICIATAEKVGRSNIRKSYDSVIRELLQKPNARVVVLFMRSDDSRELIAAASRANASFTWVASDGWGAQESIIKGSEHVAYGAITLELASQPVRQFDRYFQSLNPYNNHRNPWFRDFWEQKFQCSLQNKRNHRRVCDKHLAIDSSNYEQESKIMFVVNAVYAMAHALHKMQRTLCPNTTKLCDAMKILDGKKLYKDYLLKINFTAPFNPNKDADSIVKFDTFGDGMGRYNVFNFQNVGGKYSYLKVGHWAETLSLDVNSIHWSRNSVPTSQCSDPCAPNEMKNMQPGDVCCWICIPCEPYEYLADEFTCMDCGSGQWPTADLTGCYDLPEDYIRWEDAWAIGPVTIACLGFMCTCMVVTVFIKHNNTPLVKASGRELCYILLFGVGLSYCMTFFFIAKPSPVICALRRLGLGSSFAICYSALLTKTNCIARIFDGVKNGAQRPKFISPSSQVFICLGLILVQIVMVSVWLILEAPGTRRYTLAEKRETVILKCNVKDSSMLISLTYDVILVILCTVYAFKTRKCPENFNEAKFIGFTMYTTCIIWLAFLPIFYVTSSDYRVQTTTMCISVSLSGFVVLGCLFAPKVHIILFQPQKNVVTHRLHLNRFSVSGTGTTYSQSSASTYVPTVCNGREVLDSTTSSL
Nature of the assay: Functional assay (FLIPR), mGluR3. Conditions: class symbols: IC50 or inhibition at fixed concentration; CHO cells over-expressing mGluR3, calcium signal. On the procedure: (§1) The compounds are further characterized through functional assays known in the art for studying potential mGluR agents. As a non-limiting example, the assay may be conducted as follows. Chinese hamster ovary (CHO) cells stably over-expressing either mGluR2 or mGluR3 are seeded into multiwell plates and transiently transfected overnight at 37° C. with a cDNA construct expressing G-protein coupled to intracellular calcium such as Gα16. The following day cells are washed with Hank's balanced salt solution containing calcium and magnesium. Cells are loaded for 1-2 hours with a calcium dye such as Fluo4 at 37° C.
The test compound may be added prior to or concurrent with the loading of the cells with Fluo4. Pre-incubation with compounds can vary from 5 minutes up 2 hours. Pre-incubation is done if the assay is testing for antagonists, positive allosteric modulators or negative allosteric modulators. No pre-incubation is done if the assay is testing for agonist activity. For testing antagonists or negative allosteric modulators an EC80 of the endogenous ligand, glutamate, is used. For testing positive allosteric modulators an EC20 of the endogenous ligand, glutamate, is used. Cells plates are loaded into a real-time fluorescence reader such as the FLIPR Tetra or the Flexstation 3. A base line is recorded for 15 seconds before cells are stimulated with either glutamate or other agonists. The real-time fluorescent signal is recorded for another 2 minutes. The peak of the fluorescent signal is determined. Data are either expressed as percent of the glutamate response in terms of a single determination or concentration curves are fitted with a four parameter logistic equation giving EC50 or IC50 values.

In the next assay the target is T2, mGluR2 (Homo sapiens, UniProt Q14416).
T2 construct: expressed in transfected cells; transient Galpha16 co-transfection
T2 sequence (Q14416 19-872): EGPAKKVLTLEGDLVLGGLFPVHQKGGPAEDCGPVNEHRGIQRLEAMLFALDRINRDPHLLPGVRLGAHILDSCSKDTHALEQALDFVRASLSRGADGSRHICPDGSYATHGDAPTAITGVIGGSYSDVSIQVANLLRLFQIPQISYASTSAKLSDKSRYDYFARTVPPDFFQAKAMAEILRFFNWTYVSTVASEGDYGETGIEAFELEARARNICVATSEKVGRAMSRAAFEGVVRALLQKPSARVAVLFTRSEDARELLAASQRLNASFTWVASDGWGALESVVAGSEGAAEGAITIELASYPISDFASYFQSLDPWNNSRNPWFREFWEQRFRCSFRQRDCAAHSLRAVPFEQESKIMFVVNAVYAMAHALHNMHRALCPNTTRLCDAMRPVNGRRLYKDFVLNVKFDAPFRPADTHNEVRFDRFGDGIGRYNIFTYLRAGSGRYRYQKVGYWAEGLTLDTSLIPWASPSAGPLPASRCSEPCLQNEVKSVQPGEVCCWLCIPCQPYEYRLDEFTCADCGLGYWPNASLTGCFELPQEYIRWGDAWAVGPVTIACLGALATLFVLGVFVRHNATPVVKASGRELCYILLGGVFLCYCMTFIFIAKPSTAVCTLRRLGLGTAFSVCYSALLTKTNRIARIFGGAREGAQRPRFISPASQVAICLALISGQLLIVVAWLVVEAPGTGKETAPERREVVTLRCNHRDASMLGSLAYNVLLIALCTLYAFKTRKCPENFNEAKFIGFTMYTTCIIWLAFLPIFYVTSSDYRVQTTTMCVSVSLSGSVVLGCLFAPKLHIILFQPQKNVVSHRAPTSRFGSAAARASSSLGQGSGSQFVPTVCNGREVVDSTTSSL
Nature of the assay: Functional assay (FLIPR), mGluR2. Conditions: class symbols: IC50 or inhibition at fixed concentration; CHO cells over-expressing mGluR2, calcium signal. On the procedure: as §1
The test compound may be added prior to or concurrent with the loading of the cells with Fluo4. Pre-incubation with compounds can vary from 5 minutes up 2 hours. […] Cells plates are loaded into a real-time fluorescence reader such as the FLIPR Tetra or the Flexstation 3. A base line is recorded for 15 seconds before cells are stimulated with either glutamate or other agonists. The real-time fluorescent signal is recorded for another 2 minutes. The peak of the fluorescent signal is determined. Data are either expressed as percent of the glutamate response in terms of a single determination or concentration curves are fitted with a four parameter logistic equation giving EC50 or IC50 values.

[2] abbreviates: neuronal differentiation of hNSCs, TUJ-1 staining, read-out: Neurogenesis EC50.

The EC50 is the concentration that produces a half-maximal response. Take `O=C1CC(c2ccnnc2)=Nc2ccc(Br)cc2N1` [Compound 1, 8-bromo-4-(pyridazin-4-yl)-1H-benzo[b][1,4]diazepin-2(3H)-one]: the “effect on neuronal differentiation (neurogenesis), tested alone” value in assay [1] (FIG. 1, 0.01 μM to 31.6 μM) is listed as “promoted neuronal differentiation in a concentration dependent manner”. Also, the “neurogenesis in combination with DCG-IV” value in assay [1] (FIG. 1, Compound 1 and DCG-IV at equal concentrations (1:1 ratio) at each point) is given as “no noted neurogenesis; also recorded: did not induce neurogenesis”. The EC50 in assay [1] (FIG. 1, 0.01 μM to 31.6 μM, percentage of neuronal positive control, basal media subtracted, read-out: EC50, neuronal differentiation dose-response curve) was 2.53 µM; in assay [1] (setting [2]) it was 1 to 5 µM. Also, the “Inhibition by DCG-IV” value in assay [1] is given as “I”. Take `O=C1CC(c2ccnnc2)=Nc2ccc(C(F)(F)F)cc2N1` [Compound 2, 8-trifluoromethyl-4-(pyridazin-4-yl)-1H-benzo[b][1,4]diazepin-2(3H)-one]: the EC50 in assay [1] (setting [2]) was in the range of 1 to 5 µM. Moreover, the “Inhibition by LY-354740” value in assay [1] is listed as “I”. In the same order, the values of `O=C1CC(c2ccnnc2)=Nc2ccc(I)cc2N1` [Compound 3, 8-iodo-4-(pyridazin-4-yl)-1H-benzo[b][1,4]diazepin-2(3H)-one] are 1 to 5 µM and “I”. With `COC(=O)c1ccc2c(c1)NC(=O)CC(c1ccnnc1)=N2` [Compound 4, Methyl 2-oxo-4-(pyridazin-4-yl)-2,3-dihydro-1H-benzo[b][1,4]diazepine-8-carboxylate], the 50% effective concentration (EC50) in assay [1] (setting [2]) fell in the range of 1 to 5 µM. `O=C1CC(c2ccnnc2)=Nc2ccc(Cl)cc2N1` [Compound 5, 8-chloro-4-(pyridazin-4-yl)-1H-benzo[b][1,4]diazepin-2(3H)-one]: in assay [1] (setting [2]), the concentration for a half-maximal effect (EC50) was less than 1 µM. Turning to `O=C1CC(c2ccnnc2)=Nc2ccc(F)cc2N1` [Compound 6, 8-fluoro-4-(pyridazin-4-yl)-1H-benzo[b][1,4]diazepin-2(3H)-one], the EC50 in assay [1] (setting [2]) was in the range of 1 to 5 µM. As for `O=C1CC(c2cncnc2)=Nc2ccc(Br)cc2N1` [Compound 7, 8-Bromo-4-(pyrimidin-3-yl)-1H-benzo[b][1,4]diazepin-2(3H)-one], the 50% effective concentration (EC50) in assay [1] (setting [2]) is greater than 5 µM. Turning to `O=C1CC(c2cnccn2)=Nc2ccc(Br)cc2N1` [Compound 8, 8-Bromo-4-(pyrazin-2-yl)-1H-benzo[b][1,4]diazepin-2(3H)-one], the concentration for a half-maximal effect (EC50) in assay [1] (setting [2]) was greater than 5 µM. Still for that read-out and setting: the value for `Cc1ccc(C2=Nc3ccc(Br)cc3NC(=O)C2)nn1` [Compound 9] was 1 to 5 µM. As to `O=C1CC(c2ccc(Cl)nn2)=Nc2ccc(Br)cc2N1` [Compound 10], in assay [1] (setting [2]), the EC50 lay within 1 to 5 µM.

On to `O=C1CC(c2ccnnc2)=Nc2ccc(C(=O)O)cc2N1` [Compound 12, 2-oxo-4-(pyridazin-4-yl)-2,3-dihydro-1H-benzo[b][1,4]diazepine-8-carboxylic acid], for which, in assay [1] (setting [2]), the EC50 is less than 1 µM. Further, the “Inhibition by LY-354740” value in assay [1] is reported as “I”. As for `Cc1cc2c(cc1C)NC(=O)CC(c1ccnnc1)=N2` [Compound 13, 7,8-Dimethyl-4-(pyridazin-4-yl)-1H-benzo[b][1,4]diazepin-2(3H)-one], the concentration giving a half-maximal response (EC50) in assay [1] (setting [2]) was greater than 5 µM.

For `O=C1CC(c2ccnnc2)=Nc2ccc(-c3cccs3)cc2N1` [Compound 15, 8-(Thiophen-2-yl)-4-(pyridazin-4-yl)-1H-benzo[b][1,4]diazepin-2(3H)-one], in assay [1] (setting [2]), the EC50 lay within 1 to 5 µM. Moreover, in assay [1], the “Inhibition by LY-354740” value was “I” and the “Inhibition by DCG-IV” value is “I”. As to `O=C1CC(c2ccnnc2)=Nc2ccc(-c3ccccc3F)cc2N1` [Compound 16, 8-(2-Fluorophenyl)-4-(pyridazin-4-yl)-1H-benzo[b][1,4]diazepin-2(3H)-one], in assay [1] (setting [2]), the concentration giving a half-maximal response (EC50) is greater than 5 µM. In the case of `COc1ccc(-c2ccc3c(c2)NC(=O)CC(c2ccnnc2)=N3)cc1OC` [Compound 17, 8-(3,4-Dimethoxyphenyl)-4-(pyridazin-4-yl)-1H-benzo[b][1,4]diazepin-2(3H)-one], in assay [1] (setting [2]), the concentration for a half-maximal effect (EC50) was greater than 5 µM. In the case of `O=C1CC(c2ccc(O)nn2)=Nc2ccc(Br)cc2N1` [Compound 33, 8-Bromo-4-(6-hydroxypyridazin-3-yl)-1H-benzo[b][1,4]diazepin-2(3H)-one], the “mGluR3 FLIPR” value at mGluR3 is on record as “B (B=inhibition at 101.1M>50%)”. Regarding `O=C1CC(c2ccc3[nH]c(=O)sc3c2)=Nc2ccc(Br)cc2N1` [Compound 35, 6-(8-bromo-2-oxo-2,3-dihydro-1H-benzo[b][1,4]diazepin-4-yl)benzo[d]thiazol-2(3H)-one], the “mGluR3 FLIPR” value at mGluR3 is “C (C=inhibition at 101.1M<50%)”.

On to `O=C1CC(c2ccc3[nH]c(=O)sc3c2)=Nc2ccc(C#Cc3ccccc3F)cc2N1` [Compound 36, 6-(8-((2-fluorophenyl)ethynyl)-2-oxo-2,3-dihydro-1H-benzo[b][1,4]diazepin-4-yl)benzo[d]thiazol-2(3H)-one], for which the “mGluR3 FLIPR” value at mGluR3 is listed as “C (C=inhibition at 101.1M<50%)”.

For the compound `O=C1CC(c2cccc(Br)c2)=Nc2ccc(NC(=O)OCc3ccccc3)cc2N1` [Compound 82, benzyl(4-(3-bromophenyl)-2-oxo-2,3-dihydro-1H-benzo[b][1,4]diazepin-8-yl)carbamate], the “mGluR2 FLIPR” value on mGluR2 is on record as “A (A=IC50<1 μM)”. As to `N[C@H](C(=O)O)C1[C@@H](C(=O)O)[C@@H]1C(=O)O` (some centres unmarked) [DCG-IV, reference compound], the “effect on neuronal differentiation (neurogenesis), tested alone” value in assay [1] (FIG. 1, 0.01 μM to 31.6 μM) is on record as “no effect; also recorded: did not induce neurogenesis”.
